In data set [1] the test system is K562 CRISPRi cells. Description: Perturb-seq pooled growth measurement (sgRNA counts, growth phenotype γ, relative activity). The class given is cell-based, human. Particulars: for gamma_day5 / gamma_day10: pooled growth phenotype γ of the Perturb-seq sgRNA; for gamma_day5: day 5, K562 CRISPRi cells; for gamma_day10: day 10, K562 CRISPRi cells; for relative_activity_day5: γ relative to perfectly matched sgRNA (_00) of the same gene, day 5. In a few lines: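 sgRNA abundance was sequenced from genomic DNA of the same transduced population sampled on days two, seven and twelve. Phenotype γ compares normalized day seven and twelve counts with day two. Day-seven values (five days of growth) define relative sgRNA activity.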

For data set [2], the system named is K562 CRISPRi cells. The data set is described as above. The class given is cell-based, human. Particulars: γ relative to perfectly matched sgRNA (_00) of the same gene, day 10.

With “RPS14_ + _149829238.23-P1P2_13 (guide GAGGCCCGGGCGCGACAGTC; listed as DNA, chemistry not fully specified)”, in the data set with K562 CRISPRi cells [1], the gamma_day5 is reported as −0.2119, the gamma_day10 was −0.1559 and the relative_activity_day5 was 0.268. For the same substance, the relative_activity_day10 in the data set with K562 CRISPRi cells [2] is recorded as 0.3122.

For “RPS15_ −_1438413.23-P1P2_00 (guide GACCAAAGCGATCTCTTCTG; listed as DNA, chemistry not fully specified)”, in the data set with K562 CRISPRi cells [1], the gamma_day5 is −0.6212, the gamma_day10 was −0.376 and the relative_activity_day5 was determined as 1. This substance came in with a relative_activity_day10 in the data set with K562 CRISPRi cells [2] of 1.

For the substance “RPS15_ −_1438413.23-P1P2_01 (guide GACCAAACCGATCTCTTCTG; listed as DNA, chemistry not fully specified)”, in the data set with K562 CRISPRi cells [1], the gamma_day5 worked out at 0.006616, the gamma_day10 was 0.001422 and the relative_activity_day5 was −0.01064. Besides, in the data set on K562 CRISPRi cells [2], the relative_activity_day10 is listed as −0.003782.

As to “RPS15_ −_1438413.23-P1P2_02 (guide GACCAAGGCGATCTCTTCTG; listed as DNA, chemistry not fully specified)”, in the data set with K562 CRISPRi cells [1], the gamma_day5 was −0.4922, the gamma_day10 is listed as −0.3145 and the relative_activity_day5 is given as 0.7923. Further, in the data set on K562 CRISPRi cells [2], the relative_activity_day10 is reported as 0.8366.

Regarding “RPS15_ −_1438413.23-P1P2_07 (guide GACCAAAGCGGTCTCTTCTG; listed as DNA, chemistry not fully specified)”, in the data set with K562 CRISPRi cells [1], the gamma_day5 is −0.5221, the gamma_day10 was −0.3074 and the relative_activity_day5 is 0.8404. The relative_activity_day10 in the data set on K562 CRISPRi cells [2] is listed as 0.8176.

In the case of “RPS15_ −_1438413.23-P1P2_12 (guide GACCAAAGCGATCTCTTGTG; listed as DNA, chemistry not fully specified)”, in the data set on K562 CRISPRi cells [1], the gamma_day5 is 0.0311, the gamma_day10 turned out to be 0.01173 and the relative_activity_day5 came out at 0.05005. This substance yielded a relative_activity_day10 in the data set on K562 CRISPRi cells [2] of 0.03119.

In the data set on K562 CRISPRi cells [1], “RPS18_ + _33239917.23-P1P2_00 (guide GCTGCGATGCCGCTGGATCA; listed as DNA, chemistry not fully specified)” gave a gamma_day5 of −0.8169, a gamma_day10 of −0.503 and a relative_activity_day5 of 1. Besides, the relative_activity_day10 with K562 CRISPRi cells [2] is reported as 1.

Regarding “RPS18_ + _33239917.23-P1P2_01 (guide GCTGCAATGCCGCTGGATCA; listed as DNA, chemistry not fully specified)”, in the data set with K562 CRISPRi cells [1], the gamma_day5 is −0.5598, the gamma_day10 is reported as −0.3779 and the relative_activity_day5 is listed as 0.6853. The same substance showed a relative_activity_day10 in the data set with K562 CRISPRi cells [2] of 0.7514.

On to “RPS18_ + _33239917.23-P1P2_02 (guide GCTGGGATGCCGCTGGATCA; listed as DNA, chemistry not fully specified)”, for which, in the data set with K562 CRISPRi cells [1], the gamma_day5 was −0.4898, the gamma_day10 is recorded as −0.3191 and the relative_activity_day5 is on record as 0.5995. In addition, the relative_activity_day10 in the data set on K562 CRISPRi cells [2] is on record as 0.6345.

In the data set with K562 CRISPRi cells [1], “RPS18_ + _33239917.23-P1P2_04 (guide GCTGCGATCCCGCTGGATCA; listed as DNA, chemistry not fully specified)” had a gamma_day5 of −0.08697, a gamma_day10 of −0.08068 and a relative_activity_day5 of 0.1065. The same substance had a relative_activity_day10 in the data set on K562 CRISPRi cells [2] of 0.1604.

Take “RPS18_ + _33239917.23-P1P2_08 (guide GCTGCGATTCCGCTGGATCA; listed as DNA, chemistry not fully specified)”: in the data set on K562 CRISPRi cells [1], the gamma_day5 is −0.2228, the gamma_day10 is given as −0.1637 and the relative_activity_day5 is 0.2727. For the same substance, the relative_activity_day10 with K562 CRISPRi cells [2] came out at 0.3255.

In the data set on K562 CRISPRi cells [1], “SEC61A1_ −_127771295.23-P1_00 (guide GGCACTGACGTGTCTCTCGG; listed as DNA, chemistry not fully specified)” had a gamma_day5 of −0.92, a gamma_day10 of −0.5629 and a relative_activity_day5 of 1. In addition, in the data set on K562 CRISPRi cells [2], the relative_activity_day10 is given as 1.

On to “SEC61A1_ −_127771295.23-P1_01 (guide GGCACTGTCGTGTCTCTCGG; listed as DNA, chemistry not fully specified)”, for which, in the data set with K562 CRISPRi cells [1], the gamma_day5 is −0.4191, the gamma_day10 was −0.2918 and the relative_activity_day5 was found to be 0.4556. In addition, in the data set with K562 CRISPRi cells [2], the relative_activity_day10 was found to be 0.5184.

With “SEC61A1_ −_127771295.23-P1_02 (guide GGCGCTGACGTGTCTCTCGG; listed as DNA, chemistry not fully specified)”, in the data set with K562 CRISPRi cells [1], the gamma_day5 is −0.6451, the gamma_day10 was −0.4055 and the relative_activity_day5 stood at 0.7012. This substance also gave a relative_activity_day10 with K562 CRISPRi cells [2] of 0.7203.

In the data set with K562 CRISPRi cells [1], “SEC61A1_ −_127771295.23-P1_03 (guide GGTACTGACGTGTCTCTCGG; listed as DNA, chemistry not fully specified)” displayed a gamma_day5 of −0.5031, a gamma_day10 of −0.3419 and a relative_activity_day5 of 0.5469. Moreover, the relative_activity_day10 in the data set on K562 CRISPRi cells [2] was 0.6074.

For “SEC61A1_ −_127771295.23-P1_04 (guide GGCACTGAAGTGTCTCTCGG; listed as DNA, chemistry not fully specified)”, in the data set on K562 CRISPRi cells [1], the gamma_day5 is −0.1539, the gamma_day10 is −0.1153 and the relative_activity_day5 amounted to 0.1673. The substance also came in with a relative_activity_day10 in the data set with K562 CRISPRi cells [2] of 0.2049.

“TUBB_ + _30688126.23-P1_00 (guide GCGGCAGGAAGGTTCTGAGA; listed as DNA, chemistry not fully specified)”: in the data set with K562 CRISPRi cells [1], the gamma_day5 is recorded as −0.897, the gamma_day10 was −0.6999 and the relative_activity_day5 was determined as 1. Besides, the relative_activity_day10 in the data set with K562 CRISPRi cells [2] worked out at 1.

With “TUBB_ + _30688126.23-P1_01 (guide GCAGCAGGAAGGTTCTGAGA; listed as DNA, chemistry not fully specified)”, in the data set with K562 CRISPRi cells [1], the gamma_day5 is on record as −0.926, the gamma_day10 is listed as −0.6119 and the relative_activity_day5 was determined as 1.032. The same substance displayed a relative_activity_day10 in the data set with K562 CRISPRi cells [2] of 0.8743.

As to “TUBB_ + _30688126.23-P1_03 (guide GCGGCAGCAAGGTTCTGAGA; listed as DNA, chemistry not fully specified)”, in the data set with K562 CRISPRi cells [1], the gamma_day5 is −0.6926, the gamma_day10 was −0.4959 and the relative_activity_day5 worked out at 0.7721. In addition, in the data set on K562 CRISPRi cells [2], the relative_activity_day10 was determined as 0.7085.

Turning to “TUBB_ + _30688126.23-P1_06 (guide GCGGCAGGACGGTTCTGAGA; listed as DNA, chemistry not fully specified)”, in the data set with K562 CRISPRi cells [1], the gamma_day5 was −0.7308, the gamma_day10 is on record as −0.5544 and the relative_activity_day5 came out at 0.8147. This substance also gave a relative_activity_day10 in the data set with K562 CRISPRi cells [2] of 0.7922.

As to “TUBB_ + _30688126.23-P1_10 (guide GCGGCAGGAAGGTTCAGAGA; listed as DNA, chemistry not fully specified)”, in the data set on K562 CRISPRi cells [1], the gamma_day5 is −0.1978, the gamma_day10 is reported as −0.1451 and the relative_activity_day5 is recorded as 0.2205. For the same substance, the relative_activity_day10 in the data set on K562 CRISPRi cells [2] is given as 0.2073.

The values are drawn from patent publication US20220259593A1, “CONTROL OF MAMMALIAN GENE DOSAGE USING CRISPR” (The Regents of the University of California, priority 2019, published 2022).
